Values of other authors, collected in patent US6406529B1, “Method of reducing dentin sensitivity and compositions therefor” (MCG Research Institute, priority 1998, dated 2002).

Conditions: 3% w/v applied to dentin; in vitro and in vivo

SMILES: O=C([O-])C(=O)O.[K+] [monopotassium-monohydrogen oxalate]
- Hydraulic conductance of dentin: reduced
